# Ends that are not written are not given here.
# Key:
# [1] = tested on: rat primary cortical neurons; experiment: Rat primary cortical neurons transduced with AAVs, immunofluorescence and immunoblot; type: cell-based
# Protocol: Infected neurons were scraped from 6-well dishes and lysed with RIPA buffer containing protease inhibitor cocktail (Roche). The Triton X-100 soluble fraction was then separated from the insoluble pellet by centrifugation. Protein concentration was quantified using the DC protein assay (BioRad). For each condition, 20 μg of protein lysate was run on 4-15% acrylamide gels (BioRad) and subsequently transferred onto a polyvinylidene difluoride (PVDF) membrane. Blots were blocked with 5% skim milk in TBS+0.01% Tween-20 (TBS-T) for 1 h prior to incubation with primary antibody overnight at 4° C. Blots were subsequently washed 3 times in TBS-T for 10 minutes per wash, incubated in species specific secondary antibody for 1 h at 21° C., washed again, and then developed using ECL immunoblotting substrate (Pierce) and visualized on HyBlot CL autoradiographic film (Denville Scientific).
# Pregnant rats (E17) of the Sprague-Dawley strain were purchased from Envigo. Embryos were surgically removed from the mothers and cortices dissected in Hanks Balanced salt solution (Gibco). The meninges were removed, and cells were dissociated using a papain dissociation system (Worthington) before being resuspended in Neurobasal medium A supplemented with antibiotic-antimycotic solution (Gibco), L-glutamine substitute (GlutaMAX™; Gibco) and factor B27 (Gibco). Cells were plated on poly-D-lysine coated glass coverslips at a density of 5×10^5 cells/well, or on poly-D-lysine coated 6-well cell culture plates at a density of 2×10^6 cells/well, and incubated at 37° C. in 5% CO2 with half media changes every 3 days. Cells were transduced with AAVs 2 days post-isolation at a multiplicity of infection (MOI) of 3000. Media containing AAV vectors were removed after 72 h and cells were fixed with 4% PFA for immunofluorescence staining or lysed for immunoblotting at 8 days post-isolation.
# After fixation, cells were permeabilized with 0.2% Triton X-100 for 15 min, washed 3 times with PBS and then incubated with blocking solution (1% BSA, 22.52 mg/mL glycine, 0.1% Tween-20 in PBS) for 1 h. Primary antibodies were diluted in blocking solution and incubated overnight at 4° C. Following three washes with PBS, cells were next incubated with fluorescent secondary antibodies diluted in blocking solution for 1 h at room temperature. Following another 3 PBS washes, nuclei were counterstained with DAPI (ThermoFisher) and then coverslips were mounted on slides using fluorescence mounting medium (DAKO) and sealed using clear nail varnish.
# Confocal images of primary cortical neurons, dopaminergic neurons, and LAMP1 staining within the SN were processed using Imaris software (Oxford instruments). Z stacks were projected to give a 3D reconstruction of the field of view and mean pixel intensity per GFP^+ cell (or RFP^+ cell for V1S/SV2 experiments) was calculated for a-syn or LAMP1 signal using the software's surfaces module. For LAMP1 staining within the SN, the number of LAMP1^+ puncta within GFP^+ cells was calculated for each field of view; 3 fields of view were imaged/animal.
# [2] = tested on: SNCA triplication fibroblasts; experiment: SNCA triplication fibroblasts from a PD patient transduced with AAV peptides; type: cell-based, human
# Protocol: HEK293T cells, tet-off split luciferase a-syn cells, tet-off parent cells and SH-SY5Y cell lines were maintained in DMEM (ATCC) supplemented with 10% FBS and 1% pen/strep/glutamine, and the appropriate selection antibiotics when required. tet-off split luciferase a-syn cells and tet-off parent cells were kept with doxycycline at 1 ng/mL for inhibition of gene expression. SNCA triplication fibroblasts were obtained from NINDS (National Institute of Neurological Disorders and Stroke) and maintained in DMEM supplemented with 10% FBS and 1% pen/strep/glutamine. HA antibodies were obtained from Santa Cruz (7392) and Flag antibodies were purchased from Sigma (A8592). GFP antibodies were purchased from Abcam (ab290).
# The Lysosome Intracellular Activity Assay kit was purchased from Abcam and used per manufacturer's instructions (ab234622). […] For HEK293 cells, cells were re-suspended in PBS containing DMSO or Leupeptin and analyzed by FACS. […]
# After fixation, cells were permeabilized with 0.2% Triton X-100 for 15 min, washed 3 times with PBS and then incubated with blocking solution (1% BSA, 22.52 mg/mL glycine, 0.1% Tween-20 in PBS) for 1 h. […] Following another 3 PBS washes, nuclei were counterstained with DAPI (ThermoFisher) and then coverslips were mounted on slides using fluorescence mounting medium (DAKO) and sealed using clear nail varnish.
sequence,measurement,setting,value
DEEIERQLKALG [PDpep1.3],total a-syn fluorescence,"[1]; neurons with V1S and SV2 or V1S alone (WT a-syn), RFP-tagged peptide vs Scramble1.3",significant lowering
same,LAMP1 levels,[1]; rat cortical neurons expressing human A53T a-syn,restored LAMP1 levels
same,YFP fluorescence from co-expressed V1S and SV2 (a-syn oligomers),[1]; rat primary cortical neurons,reduced YFP fluorescence
same,endogenous a-syn fluorescence intensity,[1]; rat primary cortical neurons,reduced fluorescence intensity
same,total A53T a-syn protein levels by immunoblotting of neuronal lysates,[1]; rat primary cortical neurons,reduction
same,A53T a-syn fluorescence intensity,"[1]; rat primary cortical neurons, AAV A53T a-syn plus GFP-tagged peptide, vs Scramble1.3",significant decrease
same,fluorescence of YFP alone,"[1]; rat primary cortical neurons, control",no effect
same,levels of truncated A53T a-syn lacking amino acids 103-140 (HA immunostaining),"[1]; rat primary cortical neurons, vs Scramble1.3",did not reduce
same,lysosomal activity (lysosomal flux assay),[2],increased lysosomal activity
same,a-syn fluorescence,"[2]; RFP-tagged peptides, vs Scramble1.3",reduced a-syn fluorescence

# Reference: US20250051391A1, “PEPTIDE INHIBITORS AND METHODS FOR INHIBITING PROTEIN AGGREGATION IN NEURONS AND NEURODEGENERATIVE DISEASES” (THE GOVERNING COUNCIL OF THE UNIVERSITY OF TORONTO, priority 2021, published 2025)
